Laboratory results taken from the supplement of paper PMC10307832.

Experiments:
Assay in all cases: relative viability (nuclei count vs DMSO), 5 days (fraction); higher = more cells survive
NCI-H2228 = test system: NCI-H2228
In short: (§1)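 Medians of duplicate plates are given as relative viability. That measure is the nuclei count in treated wells divided by the count in vehicle wells. Counts were taken on 4× images of lung cancer cell lines in 1536-well plates, 5 days after pin-tool dosing the day after seeding with one drug alone or a fixed anchor-drug dose plus five library-drug doses (not always all listed) in √10 steps.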

NCI-H23 = test system: NCI-H23
In short: as §1

LK-2 = test system: LK-2
In short: as §1

PC-14 = test system: PC-14
In short: as §1

HCC-44 = test system: HCC-44
In short: as §1

PC-3 [JPC-3] = test system: PC-3 [JPC-3]
In short: as §1

SW 900 = test system: SW 900
In short: as §1

NCI-H596 = test system: NCI-H596
In short: as §1

NCI-H2347 = test system: NCI-H2347
In short: as §1

SW 1573 = test system: SW 1573
In short: as §1

LCLC-103H = test system: LCLC-103H
In short: as §1

SMILES: O=c1cc(-c2cccc3c2Sc2ccccc2S3)oc(N2CCOCC2)c1 + O=C(c1cc(Cc2n[nH]c(=O)c3ccccc23)ccc1F)N1CCN(C(=O)C2CC2)CC1 [Olaparib] (partner 8 µM)
- relative viability (NCI-H2228; first compound 0.08 µM): 0.691
- relative viability (NCI-H2228; first compound 0.253 µM): 0.869
- relative viability (NCI-H2228; first compound 0.8 µM): 0.799
- relative viability (NCI-H2228; first compound 2.53 µM): 0.83
- relative viability (NCI-H2228; first compound 8 µM): 0.733
- relative viability (NCI-H23; first compound 0.08 µM): 0.313
- relative viability (NCI-H23; first compound 0.253 µM): 0.309
- relative viability (NCI-H23; first compound 0.8 µM): 0.24
- relative viability (NCI-H23; first compound 2.53 µM): 0.269
- relative viability (NCI-H23; first compound 8 µM): 0.268
- relative viability (LK-2; first compound 0.08 µM): 0.833
- relative viability (LK-2; first compound 0.253 µM): 0.793
- relative viability (LK-2; first compound 0.8 µM): 0.79
- relative viability (LK-2; first compound 2.53 µM): 0.62
- relative viability (LK-2; first compound 8 µM): 0.749
- relative viability (PC-14; first compound 0.08 µM): 0.232
- relative viability (PC-14; first compound 0.253 µM): 0.214
- relative viability (PC-14; first compound 0.8 µM): 0.237
- relative viability (PC-14; first compound 2.53 µM): 0.169
- relative viability (PC-14; first compound 8 µM): 0.165
- relative viability (HCC-44; first compound 0.08 µM): 0.927
- relative viability (HCC-44; first compound 0.253 µM): 1.02
- relative viability (HCC-44; first compound 0.8 µM): 0.972
- relative viability (HCC-44; first compound 2.53 µM): 1.02
- relative viability (HCC-44; first compound 8 µM): 0.951
- relative viability (PC-3 [JPC-3]; first compound 0.08 µM): 1.13
- relative viability (PC-3 [JPC-3]; first compound 0.253 µM): 1.01
- relative viability (PC-3 [JPC-3]; first compound 0.8 µM): 0.95
- relative viability (PC-3 [JPC-3]; first compound 2.53 µM): 1.09
- relative viability (PC-3 [JPC-3]; first compound 8 µM): 1.19
- relative viability (SW 900; first compound 0.253 µM): 0.999
- relative viability (SW 900; first compound 0.8 µM): 0.824
- relative viability (SW 900; first compound 2.53 µM): 0.702
- relative viability (SW 900; first compound 8 µM): 0.773
- relative viability (NCI-H596; first compound 0.08 µM): 0.664
- relative viability (NCI-H596; first compound 0.253 µM): 0.631
- relative viability (NCI-H596; first compound 0.8 µM): 0.504
- relative viability (NCI-H596; first compound 2.53 µM): 0.587
- relative viability (NCI-H596; first compound 8 µM): 0.585
- relative viability (NCI-H2347; first compound 0.08 µM): 0.53
- relative viability (NCI-H2347; first compound 0.253 µM): 0.561
- relative viability (NCI-H2347; first compound 0.8 µM): 0.591
- relative viability (NCI-H2347; first compound 2.53 µM): 0.585
- relative viability (NCI-H2347; first compound 8 µM): 0.638
- relative viability (SW 1573; first compound 0.08 µM): 0.513
- relative viability (SW 1573; first compound 0.253 µM): 0.574
- relative viability (SW 1573; first compound 0.8 µM): 0.613
- relative viability (SW 1573; first compound 2.53 µM): 0.487
- relative viability (SW 1573; first compound 8 µM): 0.44
- relative viability (LCLC-103H; first compound 0.08 µM): 0.765
- relative viability (LCLC-103H; first compound 0.253 µM): 0.776
- relative viability (LCLC-103H; first compound 0.8 µM): 0.873
- relative viability (LCLC-103H; first compound 2.53 µM): 0.736
- relative viability (LCLC-103H; first compound 8 µM): 0.71
